Read-outs that look alike come from different tables or passages of the source.

The text below walks through data of patent US20060276372A1, “Carotenoids, carotenoid analogs, or carotenoid derivatives for the treatment of proliferative disorders” (priority 2005, published 2006).

One data set has as its system superoxide anion. Briefly: Direct superoxide anion scavenging by EPR spectroscopy (DEPMPO spin trap), PMA-stimulated isolated human PMNs. The class given is cell-based. On the procedure: Leukocyte Isolation and Preparation. Human polymorphonuclear leukocytes (PMNs) were isolated from freshly sampled venous blood of a single volunteer by Percoll density gradient centrifugation as described previously. Briefly, each 10 mL of whole blood was mixed with 0.8 mL of 0.1 M EDTA and 25 mL of saline. The diluted blood was then layered over 9 mL of Percoll at a specific density of 1.080 g/mL. After centrifugation at 400×g for 20 min at 20° C., the plasma, mononuclear cell, and Percoll layers were removed. Erythrocytes were subsequently lysed by addition of 18 mL of ice-cold water for 30 s, followed by 2 mL of 10×PIPES buffer (25 mM PIPES, 110 mM NaCl, and 5 mM KCl, titrated to pH 7.4 with NaOH). Cells were then pelleted at 4° C., the supernatant was decanted, and the procedure was repeated. After the second hypotonic cell lysis, cells were washed twice with PAG buffer [PIPES buffer containing 0.003% human serum albumin (HSA) and 0.1% glucose]. Afterward, PMNs were counted by light microscopy on a hemocytometer. The isolation yielded PMNs with a purity of >95%. The final pellet was then suspended in PAG-CM buffer (PAG buffer with 1 mM CaCl2 and 1 mM MgCl2).
EPR Measurements. All EPR measurements were performed using a Bruker ER 300 EPR spectrometer operating at X-band with a TM110 cavity as previously described. The microwave frequency was measured with a Model 575 microwave counter (EIP Microwave, Inc., San Jose, Calif.). To measure superoxide anion (O2) generation from phorbol-ester (PMA)-stimulated PMNs, EPR spin-trapping studies were performed using the spin trap DEPMPO (Oxis, Portland, Oreg.) at 10 mM. 1×10^6 PMNs were stimulated with PMA (1 ng/mL) and loaded into capillary tubes for EPR measurements. To determine the radical scavenging ability of 3 and 9 in aqueous and ethanolic formulations, PMNs were pre-incubated for 5 minutes with test compound, followed by PMA stimulation.
Instrument settings used in the spin-trapping experiments were as follows: modulation amplitude, 0.32 G; time constant, 0.16 s; scan time, 60 s; modulation frequency, 100 kHz; microwave power, 20 milliwatts; and microwave frequency, 9.76 GHz. The samples were placed in a quartz EPR flat cell, and spectra were recorded. The component signals in the spectra were identified and quantified as reported previously.

Data set [1] in a line: Determination of aqueous solubility/dispersibility. The data set is classed as physicochemical. On the procedure:
Determination of aqueous solubility/dispersibility. 30.13 mg of 3 was added to 1 mL of USP-purified water. The sample was rotated for 2 hours, then centrifuged for 5 minutes. After centrifuging, solid was visible in the bottom of the tube. A 125-μL aliquot of the solution was then diluted to 25 mL. The sample was analyzed by UV/Vis spectroscopy at 436 nm, and the absorbance was compared to a standard curve compiled from 4 standards of known concentration. The concentration of the original supernatant was calculated to be 2.85 mg/mL and the absorptivity was 36.94 AU*mL/cm*mg. Slight error may have been introduced by the small size of the original aliquot.
Next, 30.80 mg of 9 was added to 1 mL of USP-purified water. The sample was rotated for 2 hours, then centrifuged for 5 minutes. After centrifuging, solid was visible in the bottom of the tube. A 125-μL aliquot of the solution was then diluted to 25 mL. The sample was analyzed by UViis spectroscopy at 411 nm, and the absorbance was compared to a standard curve compiled from 4 standards of known concentration. […] Slight error may have been introduced by the small size of the original aliquot.
Determination of aqueous solubility/dipsersibility of pAST. 23.70 mg of tetrasodium diphosphate astaxanthin was added to 1 ml of USP purified water. The mixture was stirred for 2 hours, and centrifuged for 5 minutes. The solution was diluted in water and analyzed by UV/vis spectroscopy at 480 nm and absorbance was compared to a standard curve compiled from 4 standards of known concentration.

In the next data set the test system is CX43 protein. The experiment in a line: CX43 protein expression in 10T1/2 cells by Western blotting (Example 1). The class given is cell-based, Mouse. To be noted: 4 days. On the procedure: Cell lines and culture conditions. Mouse embryonic fibroblast 10T1/2 cells were cultured in Eagle's basal medium with Earle's salts supplemented with 4% fetal calf serum (Atlanta Biologicals, Norcross, Ga.), 25 μg/ml gentamicin sulfate (Sigma, St. Louis, Mo.), and passaged by trypsin/EDTA (Gibco Invitrogen, Carlsbad, Calif.) and maintained at 37° C. in a 5% CO2 atmosphere. The cells were allowed to grow until a monolayer was formed. The confluent cells were treated 7 days after seeding, unless otherwise indicated. dAST was prepared in a formulation of 20% EtOH and sterile water (0.2% final EtOH ) to minimize supramolecular aggregation, and the final concentration of EtOH in culture medium was 0.2%. CTX was dissolved in THF and added to media. TTNPB was dissolved in acetone (Sigma, St. Louis, Mo.) and cultures received a final acetone concentration of 0.1%.
Analysis of CX43 protein expression. Expression of CX43 protein in 10T1/2 cells was assessed by Western blotting. 10T1/2 cell monolayers were treated with the indicated carotenoid derivatives or with retinoids (as a positive control for the modulation of CX43 expression) 7 days after seeding in 100 mm dishes (Fisher Scientific, Pittsburgh, Pa.). Fours days after the drug was added to the cells, the cells were harvested, total cellular protein was isolated and the total protein concentration thereof was determined using a commercially available Protein Assay Reagent kit (Pierce Chemical Co., Rockford, Ill.). 40 μg of total cellular protein was resolved on an SDS-PAGE gel, transferred to a nitrocellulose membrane, and analyzed by Western blotting using the NuPage Western blotting kit (Invitrogen, Carlsbad, Calif.). CX43 was detected using a rabbit polyclonal antibody (Zymed, San Francisco, Calif.) raised against a synthetic polypeptide corresponding to the C-terminal domain common to mouse, human and rat CX43. Equal protein loafing was verified by immunoblotting for GAPDH, the expression of which is unaffected by treatment with retinoids or carotenoids, using a rabbit polyclonal GAPDH antibody was also used (Zymed, San Francisco, Calif.). CX43 and GAPDH immunoreactive bands were visualized by chemiluminescence using an anti-rabbit HRP-conjugated secondary antibody (Pierce Chemical Co., Rockford, Ill.). Images were obtained by exposure to X-ray film as previously described and scanned for digital analysis on the Fluoro-S Imager (Bio-Rad, Richmond, Calif.).

For another data set, the system named is CX43. Briefly: CX43 plaques by indirect immunofluorescence in 10T1/2 cells. To be noted: 4 days; for CX43 immunoreactive plaques / gap junction assembly: 10^−8 M. The data set is classed as cell-based, Mouse. On the procedure:
Analysis of CX43 protein by indirect immunofluorescence. Expression and assembly of CX43 into plaques was assessed by immunofluorescence staining essentially as described in Rogers et al, 1990, which is incorporated herein by reference. Briefly, confluent cultures of 10T1/2 cells were grown on Permanox plastic 4-chamber slides (Nalge Nunc International, Naperville, Ill.) and treated for 4 days as described above. Cells were fixed with −20° C. methanol overnight, washed in buffer, blocked in 1% bovine serum albumin (Sigma, St. Louis, Mo.) in PBS, incubated with the rabbit anti-CX43 antibody, and visualized with Alexa568 conjugated anti-rabbit secondary antibody (Molecular Probes, Eugene, Oreg.). Images were acquired with a Zeiss Axioplan microscope and a Roper Scientific cooled CCD camera.

The subject of data set [2] is 10T1/2 cells. Briefly: Gap junctional communication, scrape-loading dye transfer assay. The data set is classed as cell-based, Mouse. To be noted: 7 days. How it is done:
Gap junctional communication assay. Junctional permeability was assayed by the scrape-loading dye transfer assay essentially as described in El-Fouly et al., 1987, which is incorporated herein by reference. Briefly, confluent cultures of 10T1/2 cells grown in 60 mm dishes were treated with the indicated compounds for 7 days. The treated cells were washed with Ca^+2-free phosphate-buffered saline (PBS). 1.5 ml of Lucifer Yellow CH (Sigma, St. Louis, Mo.) 0.2% in PBS was then added, and linear cuts were made on the monolayer using a surgical scalpel. The cultures were incubated for 2 minutes at 37° C. then rinsed thoroughly with PBS. The cultures were then fixed with 2 ml of 5% formaldehyde in PBS. Images were digitally quantitated by intensity thresholding using the SigmaScan software program (Jandel Scientific, San Rafael, Calif.).

For data set [3], the system named is 10T1/2 cells. The data set is classed as cell-based, Mouse. The conditions noted are these: for % Inhibition of MCA-induced transformation: 4 week period; for Foci/dish (mean Type II + Type III foci, 24 dishes): 4 week period after MCA. On the procedure:
Inhibition of MCA-induced neoplastic transformation in 10T1/2 cells. Cells were initiated with methylcholanthrene (MCA) […] (Sigma, St. Louis, Mo.) in acetone for 24 hours. Potential inhibitors of neoplastic transformation were added 7 days after removal of carcinogen as indicated and were renewed weekly by adding fresh medium supplemented with the appropriate drug for four weeks after removal of the carcinogen. The cultures were fixed and stained as described above. A total of 24 dishes of cells were used per treatment group. Type II and III foci were identified and then quantitated as described in Bertram et al., 1990, which is incorporated herein by reference.
Statistical analysis. Transformation data was analyzed by one-tailed, two-sample t-tests that incorporated unequal variances. The scrape-loading data was analyzed by paired t-tests.

[4] abbreviates: 0.1 mM in 40% EtOH, sodium salt.

Regarding “3,3′-Diphosphoryloxy-β,ε-carotene sodium salt [Lutein Diphosphate Sodium Salt]”, the “Mean (% inhibition) of superoxide anion signal” value (from here on “Mean (% inhibition)”) is on record as 18% with superoxide anion (0.1 mM in 40% EtOH, listed as disodium diphosphate derivative of natural source lutein, sodium salt); 18.0% in the data set with superoxide anion (setting [4]); 0% with superoxide anion (0.1 mM in water, listed as disodium diphosphate derivative of natural source lutein, sodium salt); 9.3% in the data set with superoxide anion (1.0 mM in water); 72.3% in the data set on superoxide anion (3.0 mM in water); “more than 90%” in the data set on superoxide anion (5.0 mM in water, listed as disodium diphosphate derivative of natural source lutein, sodium salt). Besides, the “Mean (% inhibition)” value with superoxide anion (5.0 mM in water, sodium salt) is given as 91.0%.

For `CC1=C(/C=C/C(C)=C/C=C/C(C)=C/C=C/C=C(C)/C=C/C=C(C)/C=C/C2=C(C)C(=O)[C@@H](O)CC2(C)C)C(C)(C)C[C@H](O)C1=O` [AST, astaxanthin, reference compound], the water dispersibility entry in data set [1] is “insoluble in water”. Besides, the figures for the “CX43 protein induction versus solvent-treated controls” value with CX43 protein (10^−5 M), in the data set with CX43 protein (10^−6 M) and in the data set on CX43 protein (10^−7 M) were “no change”, “No change” and “No change”, respectively. The “CX43 immunoreactive plaques at regions of cell/cell apposition” value with CX43 (10^−6 M) is on record as “few immunoreactive plaques”. For the same compound, in the data set on CX43, the “CX43 immunoreactive plaques / gap junction assembly” value is “comparable to untreated cultures”. Moreover, the GJIC dye transfer result in the data set on 10T1/2 cells [2] (10^−6 M) is given as “below that observed in untreated control cultures”; with 10T1/2 cells [2] (10^−7 M) it was “roughly equivalent to that achieved in cultures treated with pAST”. The neoplastic transformation entry with 10T1/2 cells [3] (10^−5 M for 4 weeks) was “strongly inhibited”. In addition, the “% Inhibition of MCA-induced transformation” value in the data set with 10T1/2 cells [3] (10^−6 M) is 41%; in the data set with 10T1/2 cells [3] (10^−7 M), 39%; in the data set on 10T1/2 cells [3] (10^−8 M), 41%. Also, the “Foci/dish (mean Type II + Type III foci, 24 dishes)” value in the data set with 10T1/2 cells [3] (10^−6 M) was determined as 0.96 foci/dish; in the data set on 10T1/2 cells [3] (10^−7 M) it was 1.00 foci/dish; in the data set on 10T1/2 cells [3] (10^−8 M), 0.96 foci/dish. The foci/dish with 10T1/2 cells [3] (all concentrations tested) is given as 0.98 foci/dish.

Consider `CC1=C(/C=C/C(C)=C/C=C/C(C)=C/C=C/C=C(C)/C=C/C=C(C)/C=C/C2=C(C)C(=O)CCC2(C)C)C(C)(C)CCC1=O` [CTX, Canthaxanthin], for which, in the data set on CX43 protein (10^−5 M), the “CX43 protein induction versus solvent-treated controls” value is “≈ 7 fold”. Moreover, the CX43 immunoreactive plaques result in the data set with CX43 (10^−5 M) was “roughly equivalent to that achieved in cells treated with pAST at 10^−6 M”. Also, the “increase of dye transfer” value in the data set on 10T1/2 cells [2] (10^−5 M) stood at 4 fold.

`C/C(=C\c1ccc(C(=O)O)cc1)c1ccc2c(c1)C(C)(C)CCC2(C)C` [TTNPB, tetrahydrotetramethylnaphalenylpropenyl benzoic acid]: the “CX43 protein induction versus solvent-treated controls” value with CX43 protein (10^−8 M) is “about 13 fold”. In addition, the “CX43 immunoreactive plaques / gap junction assembly” value in the data set on CX43 is recorded as “extensive CX43 immunoreactive plaques”. The “increase of dye transfer” value in the data set with 10T1/2 cells [2] (10^−8 M) amounted to 6 fold.

In data set [1], “β,ε-carotenyl 3,3′-disuccinate sodium salt [Lutein Disuccinate Sodium Salt]” returned an aqueous solubility/dispersibility of 2850 µg/mL. Besides, the “Mean (% inhibition)” value is “did not significantly increase scavenging over that provided by the EtOH vehicle alone” in the data set with superoxide anion (0.1 mM in 40% EtOH, listed as disodium disuccinate derivative of natural source lutein, sodium salt); 5.0% with superoxide anion (setting [4]); 0% in the data set on superoxide anion (0.1 mM in water); 13.0% in the data set with superoxide anion (1.0 mM in water); 61.7% in the data set on superoxide anion (3.0 mM in water); around 75% in the data set on superoxide anion (5.0 mM in water, listed as disodium disuccinate derivative of natural source lutein, sodium salt). The “Mean (% inhibition)” value was 75% in the data set on superoxide anion (5.0 mM in water, listed as disuccinate lutein sodium salt, sodium salt) and 74.7% in the data set with superoxide anion (5.0 mM in water, sodium salt).
